Article PMC3514216, “SRC Homology 2 Domain Binding Sites in Insulin, IGF-1 and FGF receptor mediated signaling networks reveal an extensive potential interactome” (Cell Communication and Signaling : CCS, 2012)
Residue numbers refer to the chain shown, from its start.

Tests used:
[1] = biological target: T1, CrkL SH2 domain (Homo sapiens, UniProt P46109); experiment: Fluorescence polarization solution binding; conditions: Rhodamine B-labeled peptide, GST-SH2, Beacon 2000, read-out: Affinity (KD)
T1 sequence (P46109 14-102 limits assumed): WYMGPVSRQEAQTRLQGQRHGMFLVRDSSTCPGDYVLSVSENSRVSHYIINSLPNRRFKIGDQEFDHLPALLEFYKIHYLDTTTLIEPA
Excerpt: To verify the binding results obtained from addressable peptide arrays we employed an orthogonal method of determining SH2 interactions with peptide ligands. We measured the dissociation constants of 60 binary SH2-peptide pairs in solution by fluorescence polarization (Table 2, Additional file 2: Figures S3A-C).
Peptides were synthesized using FMOC-chemistry onto pre-loaded tenta-gel resins. Peptides were then labeled with Rhodamine B (Abbey Color) and then cleaved using trifluoroacetic acid. Peptides were lyophilized and then purified using a LC/MS (Agilent 2100). Dissociation constants were measured using the Beacon 2000 (Invitrogen) as previously described.
Binding Affinities determined by Fluorescence Polarization. Rhodamine B-labeled peptides were mixed with varying concentrations of GST-tagged SH2 domains. Fluorescence polarization measurements were read on a Beacon 2000 (Invitrogen). The curves were fit to a Michaelis-Menten equation to calculate the dissociation constant, KD. […] (C) Affinity measurements that fell below the 2X mean intensity and were considered array negative on the SPOT array.

[2] = biological target: Grb2 SH2 domain (Homo sapiens, UniProt P62993); design: method as in earlier work; conditions: SH2 protein microarray; N.B. = non binding; read-out: Protein Microarray (Macbeath) – KD; cited from earlier work
Chain of Grb2 SH2 domain (P62993 60-152 limits assumed): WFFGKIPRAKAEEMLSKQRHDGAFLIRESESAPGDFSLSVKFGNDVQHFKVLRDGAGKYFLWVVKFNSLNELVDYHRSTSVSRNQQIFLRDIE

[3] = biological target: T2, Abl2 SH2 domain (Homo sapiens, UniProt P42684); design: method as in earlier work; conditions: SH2 protein microarray; N.B. = non binding; read-out: Protein Microarray (Macbeath) – KD; cited from earlier work
T2 sequence (P42684 173-263 limits assumed): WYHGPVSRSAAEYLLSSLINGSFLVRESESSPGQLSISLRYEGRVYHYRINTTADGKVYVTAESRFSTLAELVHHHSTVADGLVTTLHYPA

[4] = system: panel of 50 SH2 domains; experiment: SPOT peptide array probed with each of 50 GST-SH2 domains; format: binding; conditions: SH2 domains with intensity >3X array mean; GST-SH2 0.25 μM, 1 mM DTT
Outline: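 Membrane SPOT arrays of 192 phosphotyrosine 11-mer peptides (four residues N-terminal, six C-terminal to pTyr) probed with GST-SH2 fusions, detected by anti-GST plus near-infrared secondary antibody. Spots >3-fold array mean scored positive, below mean negative, 1–3× indeterminate; peptides binding GST alone above mean in two of three trials flagged as sticky.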

[5] = biological target: T3, Ptpn11_N SH2 domain (Homo sapiens, UniProt Q06124); experiment: SPOT peptide array; format: binding; conditions: spot intensity as factor of array mean; GST-SH2 0.25 μM
T3 sequence (Q06124 6-102 limits assumed): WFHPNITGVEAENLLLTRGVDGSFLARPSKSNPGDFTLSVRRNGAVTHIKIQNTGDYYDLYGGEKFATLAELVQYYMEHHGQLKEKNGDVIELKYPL
Outline: (§1)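 Peptides were synthesized by SPOT on cellulose as 11-mers with the phosphotyrosine fifth, about 5 nmol each. GST–SH2 domain fusions were then incubated on the arrays and visualized via anti-GST and near-infrared secondary antibodies. Peptides binding GST alone above mean in two of three trials were flagged nonspecific.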

[6] = system: Ptpn11_C SH2 domain; experiment: SPOT peptide array; format: binding; conditions: spot intensity as factor of array mean; GST-SH2 0.25 μM
Outline: as §1

[7] = system: Ptpn11 SH2 domain (N or C not specified); experiment: SPOT peptide array; format: binding; conditions: GST-SH2 0.25 μM, membrane-bound peptide, 1 mM DTT, LiCor read-out
Outline: as §1

[8] = biological target: T4, Shc1 SH2 domain (Homo sapiens, UniProt P29353); experiment: SPOT peptide array; format: binding; conditions: GST-SH2 0.25 μM, membrane-bound peptide, 1 mM DTT, LiCor read-out
T4 sequence (P29353 488-579 limits assumed): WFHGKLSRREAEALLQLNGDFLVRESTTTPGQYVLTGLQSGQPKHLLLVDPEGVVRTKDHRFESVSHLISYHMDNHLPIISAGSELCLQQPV
Outline: as §1

[9] = biological target: Plcγ-N SH2 domain; design: method as in PMID 9422724; conditions: tandem SH2 domains of PLCG1 against tandem phospho-peptide of PDGFRβ Y1009/Y1021; read-out: Affinity (KD); cited from earlier work
[10] = biological target: T5, PI3K1_N SH2 domain (Homo sapiens, UniProt P27986); design: method as in PMID 8384875; conditions: cited from earlier work
T5 sequence (P27986 333-428 limits assumed): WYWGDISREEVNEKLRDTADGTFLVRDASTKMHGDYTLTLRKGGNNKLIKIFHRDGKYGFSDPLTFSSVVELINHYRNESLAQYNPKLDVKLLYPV

[11] = system: Plcγ-C SH2 domain; experiment: SPOT peptide array; format: binding; conditions: GST-SH2 0.25 μM, membrane-bound peptide, 1 mM DTT, LiCor read-out
Outline: as §1

[12] = system: Plcγ-N SH2 domain; experiment: SPOT peptide array; format: binding; conditions: GST-SH2 0.25 μM, membrane-bound peptide, 1 mM DTT, LiCor read-out
Outline: as §1

[13] = biological target: T5, PI3K1_N SH2 domain; experiment: SPOT peptide array; format: binding; conditions: GST-SH2 0.25 μM, membrane-bound peptide, 1 mM DTT, LiCor read-out
Outline: as §1

[14] = biological target: Vav1 SH2 domain (Homo sapiens, UniProt P15498); experiment: SPOT peptide array; format: binding; conditions: GST-SH2 0.25 μM, membrane-bound peptide, 1 mM DTT, LiCor read-out
Chain of Vav1 SH2 domain (P15498 671-765 limits assumed): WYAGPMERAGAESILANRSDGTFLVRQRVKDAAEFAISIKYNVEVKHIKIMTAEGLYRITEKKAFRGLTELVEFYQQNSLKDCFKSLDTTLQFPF
Outline: as §1

[15] = biological target: Plcγ-C SH2 domain; design: method as in 2 sources, one per row (each row's own in cited_ref): ref 95-97 = [95]; PMID 9422724; doi:10.1074/jbc.273.2.729; Ottinger EA Botfield MC Shoelson SE Tandem SH2 domains confer high specificity in tyrosine kinase signaling J Biol Chem 1998 273 729 735 9422724 10.1074/jbc.273.2.729 || [96]; PMID 8181064; doi:10.1016/0092-8674(94)90160-0; Pascal SM Singer AU Gish G Yamazaki T Shoelson SE Pawson T Kay LE Forman-Kay JD Nuclear magnetic resonance structure of an SH2 domain of phospholipase C-gamma 1 complexed with a high affinity binding || [97]; PMID 15641795; doi:10.1021/bi048641k; Finerty PJ Jr Mittermaier AK Muhandiram R Kay LE Forman-Kay JD NMR dynamics-derived insights into the binding properties of a peptide interacting with an SH2 domain Biochemistry 2005 44 694 703 156417 ||| ref [98] = [98]; PMID 11526507; doi:10.1038/sj.onc.1204654; Malabarba MG Milia E Faretta M Zamponi R Pelicci PG Di Fiore PP A repertoire library that allows the selection of synthetic SH2s with altered binding specificities Oncogene 2001 20 5186 5194 11526507; conditions: tandem SH2 domains of PLCG1 against tandem phospho-peptide of PDGFRβ Y1009/Y1021; read-out: Affinity (KD); cited from earlier work
[16] = biological target: Sh2d1b SH2 domain (Homo sapiens, UniProt O14796); experiment: SPOT peptide array; format: binding; conditions: GST-SH2 0.25 μM, membrane-bound peptide, 1 mM DTT, LiCor read-out
Chain of Sh2d1b SH2 domain (O14796 5-101 limits assumed): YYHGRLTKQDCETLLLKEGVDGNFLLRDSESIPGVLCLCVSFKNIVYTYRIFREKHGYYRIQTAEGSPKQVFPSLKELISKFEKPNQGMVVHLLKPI

[17] = biological target: Crk SH2 domain (Homo sapiens, UniProt P46108); experiment: SPOT peptide array; format: binding; conditions: spot intensity as factor of array mean; GST-SH2 0.25 μM
Chain of Crk SH2 domain (P46108 13-118 limits assumed): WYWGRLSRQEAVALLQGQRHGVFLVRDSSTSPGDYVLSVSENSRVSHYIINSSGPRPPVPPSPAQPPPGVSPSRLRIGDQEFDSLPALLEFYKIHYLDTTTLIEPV
Outline: as §1

[18] = biological target: T1, CrkL SH2 domain; experiment: SPOT peptide array; format: binding; conditions: spot intensity as factor of array mean; GST-SH2 0.25 μM
Outline: as §1

[19] = biological target: T2, Abl2 SH2 domain; experiment: SPOT peptide array; format: binding; conditions: spot intensity as factor of array mean; GST-SH2 0.25 μM
Outline: as §1

[20] = biological target: T6, Abl1 SH2 domain (Homo sapiens, UniProt P00519); experiment: SPOT peptide array; format: binding; conditions: GST-SH2 0.25 μM, membrane-bound peptide, 1 mM DTT, LiCor read-out
T6 sequence (P00519 127-217 limits assumed): T2 sequence (P42684 173-263 limits assumed) with S9N, L18G, L35R, T53A, A54S, V58L, T61S, A62S, S67N, V84I
Outline: as §1

[21] = biological target: Nck1 SH2 domain (Homo sapiens, UniProt P16333); experiment: SPOT peptide array; format: binding; conditions: GST-SH2 0.25 μM, membrane-bound peptide, 1 mM DTT, LiCor read-out
Outline: as §1

[22] = biological target: T7, Src SH2 domain (Homo sapiens, UniProt P12931); design: method as in 2 sources, ref [19] = [19]; PMID 7680959; doi:10.1016/0092-8674(93)90404-e; Songyang Z Shoelson SE Chaudhuri M Gish G Pawson T Haser WG King F Roberts T Ratnofsky S Lechleider RJ SH2 domains recognize specific phosphopeptide sequences Cell 1993 72 767 778 7680959 10.1016/0092 ||| ref [119, 121] = [119]; PMID 9032297; doi:10.1128/mcb.17.3.1702; Schlaepfer DD Broome MA Hunter T Fibronectin-stimulated signaling from a focal adhesion kinase-c-Src complex: involvement of the Grb2, p130cas, and Nck adaptor proteins Mol Cell Biol 1997 17 1702 1713 || [121]; PMID 16245368; doi:10.1002/jmr.755; Nasertorabi F Tars K Becherer K Kodandapani R Liljas L Vuori K Ely KR Molecular basis for regulation of Src by the docking protein p130Cas J Mol Recognit 2006 19 30 38 16245368 10.1002/jmr.755; conditions: read-out: Affinity (KD); cited from earlier work
[23] = biological target: Lck SH2 domain; design: method as in PMID 11278862; conditions: read-out: Affinity (KD); cited from earlier work
[24] = biological target: T7, Src SH2 domain; experiment: SPOT peptide array; format: binding; conditions: GST-SH2 0.25 μM, membrane-bound peptide, 1 mM DTT, LiCor read-out
Outline: as §1

[25] = system: Lck SH2 domain; experiment: SPOT peptide array; format: binding; conditions: GST-SH2 0.25 μM, membrane-bound peptide, 1 mM DTT, LiCor read-out
[26] = biological target: T4, Shc1 SH2 domain; design: method as in PMID 7544002; conditions: read-out: Affinity (KD); cited from earlier work

**Q.** With CC(C)C[C@H](NC(=O)[C@H](CCC(=O)O)NC(=O)[C@H](Cc1ccc(OP(=O)(O)O)cc1)NC(=O)[C@H](CCC(=O)O)NC(=O)[C@H](CO)NC(=O)[C@@H](NC(=O)CN)C(C)C)C(=O)N1CCC[C@H]1C(=O)N[C@@H](CCC(=O)O)C(=O)N[C@@H](CC(=O)O)C(=O)N1CCC[C@H]1C(=O)O [GVSEpYELPEDP] as the compound, how does the Kd [1] read?
**A.** The Kd was > 50000 nM.

**Q.** For “EIFTLGGSPpYPGVPVEED (EIFTLGGSPYPGVPVEED)”, which Kd [2] is on record?
**A.** Its Kd is 140 nM.

**Q.** What about the Kd [3] of the same compound?
**A.** The Kd was 400 nM.

**Q.** For “STVEpYSTVVHS [11-mer phosphotyrosine control peptide, gp130/IL-6 Receptor (Y759), reference compound]”, which “Other SH2 domains bound (additional array-positive SH2 domains)” value [4] is on record?
**A.** The value was “PTPN11_N is 1.33X Mean, PTPN11_C is 2.8X Mean Brdg1, Brk, Sh2d1b”.

**Q.** What about the “Peptide array intensity (X mean)” value [5] of the same compound?
**A.** Its value is 1.33 X Mean.

**Q.** And the “Peptide array intensity (X mean)” value [6]?
**A.** Its value is 2.8 X Mean.

**Q.** And the Array positive [7]?
**A.** Its Array positive is “No (Peptide spots with average intensity values between 1X-3X the array mean were defined as ‘indeterminate’. Those with intensities below 1X mean were defined as array negative)”.

**Q.** For “HDGLpYQGLSTA [11-mer phosphotyrosine control peptide, CD150 (Y142)]”, which Array positive [8] is on record?
**A.** The Array positive was “No (Peptide spots with average intensity values between 1X-3X the array mean were defined as ‘indeterminate’. Those with intensities below 1X mean were defined as array negative)”.

**Q.** What does the source list for “ADNDpYIIPLPD [11-mer phosphotyrosine control peptide, PDGFRb (Y1021), reference compound]”?
**A.** Other SH2 domains bound (additional array-positive SH2 domains) [4]: Brk; Kd [9]: 0.65 to 2.2 nM; Relative affinity (ID50) [10]: 45000 nM; Array positive [11]: Yes (Array-positive binding was ascribed to interactions with intensities greater than three times the array mean); Array positive [12]: Yes (Array-positive binding was ascribed to interactions with intensities greater than three times the array mean); Array positive [13]: No (Peptide spots with average intensity values between 1X-3X the array mean were defined as ‘indeterminate’. Those with intensities below 1X mean were defined as array negative); Array positive [14]: Yes (Array-positive binding was ascribed to interactions with intensities greater than three times the array mean); Kd [15]: 0.65 to 2.2 nM

**Q.** Which Array positive [16] does the source give for “SLTIpYAQVQKA [11-mer phosphotyrosine control peptide, SLAM (Y280)]” here?
**A.** The Array positive was “Yes (Array-positive binding was ascribed to interactions with intensities greater than three times the array mean)”.

**Q.** Which “Peptide array intensity (X mean)” value [17] does the source give for SSKDLVSCApYQVARGMED here?
**A.** Its value is <2x X Mean.

**Q.** What about the “Peptide array intensity (X mean)” value [18] of the same compound?
**A.** Its value is <2x X Mean.

**Q.** And the “Peptide array intensity (X mean)” value [19]?
**A.** The value was <2x X Mean.

**Q.** Which results are given for “EDPIpYDEPEGL [11-mer phosphotyrosine peptide, p62DOK1 (Y362)]”?
**A.** Other SH2 domains bound (additional array-positive SH2 domains) [4]: Blk, Hck, Lck, Lyn, Shc1, Src; Array positive [20]: Yes (Array-positive binding was ascribed to interactions with intensities greater than three times the array mean); Array positive [21]: Yes (Array-positive binding was ascribed to interactions with intensities greater than three times the array mean)

**Q.** What does the source list for “AEPQpYEEIPIY [11-mer phosphotyrosine control peptide, Middle T-antigen (Y323), reference compound]”?
**A.** Kd [22]: 550 to 800 nM; Other SH2 domains bound (additional array-positive SH2 domains) [4]: Blk, Brk, Fer, Fgr, Hck, Lyn, Nck1, Shc1, Yes; Kd [23]: 1300 ± 200 nM; Array positive [24]: Yes (Array-positive binding was ascribed to interactions with intensities greater than three times the array mean); Array positive [25]: Yes (Array-positive binding was ascribed to interactions with intensities greater than three times the array mean)

**Q.** With “HDGLpYQGLSTA (HDGLYQGLSTA) [11-mer phosphotyrosine control peptide, CD150 (Y142)]” as the compound, how does the Kd [26] read?
**A.** The Kd was 50000 nM.
